From patent publication US20260250320A1, “LIPIDATED PEPTIDE INHIBITORS OF INTERLEUKIN-23 RECEPTOR” (Janssen Pharmaceutica NV, priority 2023, published 2026) come the findings set out here.

One assay addresses T1, IL-23R (Homo sapiens, UniProt Q5VWK5).
T1 construct: HEK293 cells containing IL-23R, IL-12Rβ1 and a firefly luciferase reporter gene driven by a STAT-inducible promoter (Promega); host or cells: HEK293
T1 sequence (Q5VWK5 24-629): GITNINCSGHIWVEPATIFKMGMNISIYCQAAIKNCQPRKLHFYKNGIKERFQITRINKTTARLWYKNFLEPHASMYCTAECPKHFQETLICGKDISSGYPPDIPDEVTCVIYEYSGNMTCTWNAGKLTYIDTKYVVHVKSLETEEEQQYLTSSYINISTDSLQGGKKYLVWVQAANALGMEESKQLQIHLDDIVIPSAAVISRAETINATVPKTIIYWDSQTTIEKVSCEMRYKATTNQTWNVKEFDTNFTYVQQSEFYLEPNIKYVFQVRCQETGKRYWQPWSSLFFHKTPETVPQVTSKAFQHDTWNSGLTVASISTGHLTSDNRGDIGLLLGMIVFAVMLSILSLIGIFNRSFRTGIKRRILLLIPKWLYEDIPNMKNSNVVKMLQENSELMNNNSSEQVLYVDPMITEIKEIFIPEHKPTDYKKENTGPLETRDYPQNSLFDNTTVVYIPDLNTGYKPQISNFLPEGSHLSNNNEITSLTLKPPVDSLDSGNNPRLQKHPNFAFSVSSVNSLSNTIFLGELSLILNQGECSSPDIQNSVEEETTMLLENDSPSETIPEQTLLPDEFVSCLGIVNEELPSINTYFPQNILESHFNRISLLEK
Put plainly: IL23R Reporter Assay. Type of assay: cell-based. Conditions: HEK293 cells containing IL-23R, IL-12Rβ1 and STAT-inducible firefly luciferase reporter; 10 ng/mL IL-23 (EC90); 5 h. In outline: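 HEK293 cells carrying IL-23R, IL-12Rβ1 and a STAT-driven firefly luciferase reporter (4000 cells/well) received compound, then 10 ng/mL IL-23 solution (EC90), and were incubated for 5 h at 37° C. BioGlo luminescence was normalised to IL-23 alone (0%) and 30 μM control inhibitor (100%). IC50 came from a 4-parameter Hill fit.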

Assay [1] has as its system IL-23-stimulated phosphorylated STAT3 in peripheral blood mononuclear cells (PBMCs). Put plainly: PBMC pSTAT3 Assay. The conditions noted are these: PBMCs from healthy donors; 30 min preincubation with peptide; IL-23 5 ng/mL for 30 min; phospho-STAT3 by MSD. Type of assay: cell-based. The method in brief:
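Healthy-donor PBMCs expanded 4 days on anti-CD3 with 100 ng/mL IL-1β, starved ~4 h in RPMI-0.1% BSA, preincubated 30 min with peptide, then stimulated 30 min at 37 °C with 5 ng/mL IL-23. Lysate pSTAT3 measured by MSD phospho-STAT panel; IC50 derived.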

The structures appear in SMILES notation. *1 amine or outer side, *2 acyl side, *3 side chain or, on linkers, in order; H or OH if unused. Where a SMILES comes first, the peptide text is derived from it. Bridges are numbered along the chain shown (N, C = ends). Side-chain parts run from the residue outwards. [ ]: non-standard residue; d: D form. The star is where a group is joined. ξ: configuration not given here. Me3N+CH2CH2(OCH2CH2)4CO = C[N+](C)(C)CCOCCOCCOCCOCCC(=O)*; X28 = CC(=O)[C@H](CCC(=O)*)NC(=O)CCCCCCCCCCCCCCCCC(=O)O; PEG12 = NCCOCCOCCOCCOCCOCCOCCOCCOCCOCCOCCOCCOCCC(=O)O; Trp(7-Me) = Cc1cccc2c(C[C@H](N)C(=O)O)c[nH]c12; C18 diacid = O=C(O)CCCCCCCCCCCCCCCCC(=O)*; C16 diacid = O=C(O)CCCCCCCCCCCCCCC(=O)*; X6 = CN(CC[C@H](N[*:1])C(=O)[*:2])[*:3]; γGlu = O=C(O)[C@H](CCC(=O)[*:2])N[*:1]; 2Nal = N[C@@H](Cc1ccc2ccccc2c1)C(=O)O; PEG6 = NCCOCCOCCOCCOCCOCCOCCC(=O)O; ξAEF = NCCOc1ccc(CC(N)C(=O)O)cc1; 3Pal = N[C@@H](Cc1cccnc1)C(=O)O; Lys(Me) = CNCCCC[C@H](N)C(=O)O; NMeK = CN[C@@H](CCCCN)C(=O)O; Pen = CC(C)(S)[C@H](N)C(=O)O; Thp = NC1(C(=O)O)CCOCC1; X1 = C[N+](C)(C)CCCCC*; AEEA = NCCOCCOCC(=O)O; Sar = CNCC(=O)O Where only a bound is given, the exact number is not on record here.

`CC(=O)[C@H](CCC(=O)NCCOCCOCCOCCOCCOCCOCCC(=O)NCCCC[C@@H](C(N)=O)N(C)C(=O)[C@H](Cc1cccnc1)NC(=O)[C@H](CC(N)=O)NC(=O)[C@H](CCC(=O)O)NC(=O)C1(NC(=O)[C@H](Cc2ccc3ccccc3c2)NC(=O)C(Cc2ccc(OCCN)cc2)NC(=O)[C@H]2NC(=O)[C@H](CCN(C)C(=O)CCOCCOCCOCCOCC[N+](C)(C)C)NC(=O)[C@H](Cc3c[nH]c4c(C)cccc34)NC(=O)[C@H]([C@@H](C)O)NC(=O)[C@H](CC(=O)N(C)C)NC(=O)[C@@H](NC(=O)CCOCCOCCOCCOCC[N+](C)(C)C)C(C)(C)SSC2(C)C)CCOCC1)NC(=O)CCCCCCCCCCCCCCCCC(=O)O` (stereo partly drawn) [compound 91, HOC18gEPEG2PEG2COSP6-Pen(3)-N(N(Me)2)-T-7MeW-K(NMeAc)-Pen(3)-APEG3F-2Nal-THP-K(NMeAc)-N-3Pya-Sar-CON(Me)2] ({Me3N+CH2CH2(OCH2CH2)4CO}-[Pen]D(NMe2)T[Trp(7-Me)][X6](Me3N+CH2CH2(OCH2CH2)4CO)[Pen][ξAEF][2Nal][Thp]EN[3Pal][NMeK]([PEG6-X28])-NH2; disulfide 1-6): the IC50 against IL-23R is less than 50 nM; in assay [1] it was less than 0.5 nM.

For the compound `CC(=O)N[C@H](CCCNC(=N)N)C(=O)N[C@@H]1C(=O)N[C@@H](CC(N)=O)C(=O)N[C@@H]([C@@H](C)O)C(=O)N[C@@H](Cc2c[nH]c3c(C)cccc23)C(=O)N[C@@H](CCCCNC(=O)COCCOCCNC(=O)COCCOCCNC(=O)CC[C@H](NC(=O)CCCCCCCCCCCCCCC(=O)O)C(=O)O)C(=O)N[C@H](C(=O)N[C@@H](Cc2ccc(OCCCCC[N+](C)(C)C)cc2)C(=O)N[C@@H](Cc2ccc3ccccc3c2)C(=O)NC2(C(=O)N[C@@H](CCC(=O)O)C(=O)N[C@@H](CC(N)=O)C(=O)N[C@@H](Cc3cccnc3)C(=O)N(C)CC(=O)N(C)C)CCOCC2)C(C)(C)SSC1(C)C` [compound 92, MeCO-r-Pen(3)-N-T-7MeW-K(PEG2PEG2gEC18OH)-Pen(3)-TMAPF-2Nal-THF-E-N-3Pya-Sar-CONH2] (Ac-[dR][Pen]NT[Trp(7-Me)]K([AEEA-AEEA-γGlu-C16 diacid])[Pen]Y(X1)[2Nal][Thp]EN[3Pal][Sar]-NMe2; disulfide 2-7), the results for the IC50 (on IL-23R; in assay [1]) were 50 to 500 nM and less than 0.5 nM, respectively.

As for `CC(=O)N(C)CCCC[C@@H]1NC(=O)[C@H](Cc2c[nH]c3c(C)cccc23)NC(=O)[C@H]([C@@H](C)O)NC(=O)[C@H](CC(=O)N(C)C)NC(=O)[C@@H](NC(=O)CCOCCOCCOCCOCCOCCOCCOCCOCCOCCOCCOCCOCCNC(=O)CC[C@H](NC(=O)CCCCCCCCCCCCCCCCC(=O)O)C(=O)O)C(C)(C)SSC(C)(C)[C@@H](C(=O)N[C@@H](Cc2ccc(OCCCCC[N+](C)(C)C)cc2)C(=O)N[C@@H](Cc2ccc3ccccc3c2)C(=O)NC2(C(=O)N[C@@H](CCCCN(C)C(C)=O)C(=O)N[C@@H](CC(N)=O)C(=O)N[C@@H](Cc3cccnc3)C(=O)N(C)CC(=O)N(C)C)CCOCC2)NC1=O` [compound 95, HOC18gEPEG12CO-Pen(3)-N(N(Me)2)-T-7MeW-K(NMeAc)-Pen(3)-TMAPF-2Nal-THP-K(NMeAc)-N-3Pya-Sar-CON(Me)2] ({C18 diacid-γGlu-PEG12}-[Pen]D(NMe2)T[Trp(7-Me)][Lys(Me)](Ac)[Pen]Y(X1)[2Nal][Thp][Lys(Me)](Ac)N[3Pal][Sar]-NMe2; disulfide 1-6), the IC50 on IL-23R was less than 50 nM; in assay [1], less than 0.5 nM.

As for `CC(=O)N[C@@H]1C(=O)N[C@@H](CC(N)=O)C(=O)N[C@@H]([C@@H](C)O)C(=O)N[C@@H](Cc2c[nH]c3ccccc23)C(=O)N[C@@H](CCCCNC(=O)CCOCCOCCOCCOCCOCCOCCOCCOCCOCCOCCOCCOCCNC(=O)CC[C@H](NC(=O)CCCCCCCCCCCCCCCCC(=O)O)C(=O)O)C(=O)N[C@H](C(=O)N[C@@H](Cc2ccc(OCCN)cc2)C(=O)N[C@@H](Cc2ccc3ccccc3c2)C(=O)NC2(C(=O)N[C@@H](CCC(=O)O)C(=O)N[C@@H](CC(N)=O)C(=O)N[C@@H](Cc3cccnc3)C(=O)N(C)CC(N)=O)CCOCC2)C(C)(C)SSC1(C)C` [compound 96, MeCO-Pen(3)-N-T-7MeW-K(PEG12gEC18OH)-Pen(3)-AEF-2Nal-THP-E-N-3Pya-Sar-CONH2], the figures for the IC50 (on IL-23R; in assay [1]) were less than 50 nM and less than 0.5 nM, respectively.
